# Test results taken from PMC10337138 (Acta Neuropathologica Communications, 2023).
# Experiments:
# Settings in all cases: 1 mM ATP; inhibitor
# [1] = biological target: MAP3K3 (Homo sapiens, UniProt Q99759)
# Procedure: (§1) Kinase selectivity panel Kinome profiling was conducted by AssayQuant Technologies (Marlboro, MA) using Sox chromophore technology and Sox-based peptide substrates developed for human kinases in a 384-well format. Compounds were tested at 1 µM in the presence of 1 mM ATP.
# [2] = biological target: SNRK (Homo sapiens, UniProt Q9NRH2)
# Procedure: as §1
# [3] = biological target: T1, NDR2 (Homo sapiens, UniProt Q9Y2H1)
# T1 construct: gene STK38L
# Procedure: as §1
# [4] = biological target: PDGFRB (Homo sapiens, UniProt P09619)
# Procedure: as §1
# [5] = biological target: TSSK2 (Homo sapiens, UniProt Q96PF2)
# Chain of TSSK2 (Q96PF2 whole entry): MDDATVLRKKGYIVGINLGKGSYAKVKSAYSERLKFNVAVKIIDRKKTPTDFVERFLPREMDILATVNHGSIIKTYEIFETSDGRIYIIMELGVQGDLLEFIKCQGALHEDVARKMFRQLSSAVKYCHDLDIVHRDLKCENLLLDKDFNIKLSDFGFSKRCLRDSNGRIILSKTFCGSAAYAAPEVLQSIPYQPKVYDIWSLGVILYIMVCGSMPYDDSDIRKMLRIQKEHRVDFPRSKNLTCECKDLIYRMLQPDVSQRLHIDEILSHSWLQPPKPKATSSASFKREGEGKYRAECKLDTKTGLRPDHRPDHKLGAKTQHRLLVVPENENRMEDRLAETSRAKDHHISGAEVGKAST
# Procedure: as §1
# [6] = biological target: JAK1(JH1JH2) (Homo sapiens, UniProt P23458)
# Procedure: as §1
# [7] = biological target: DAPK3 (Homo sapiens, UniProt O43293)
# Procedure: as §1
# [8] = biological target: PLK4 (Homo sapiens, UniProt O00444)
# Procedure: as §1
# [9] = biological target: FRK (Homo sapiens, UniProt P42685)
# Procedure: as §1
# [10] = biological target: ROCK1 (Homo sapiens, UniProt Q13464)
# Procedure: as §1
# [11] = biological target: RPS6KA1/RSK1 (Homo sapiens, UniProt Q15418)
# Procedure: as §1
# [12] = biological target: HIPK2 (Homo sapiens, UniProt Q9H2X6)
# Procedure: as §1
# [13] = biological target: PLK1 (Homo sapiens, UniProt P53350)
# Chain of PLK1 (P53350 whole entry): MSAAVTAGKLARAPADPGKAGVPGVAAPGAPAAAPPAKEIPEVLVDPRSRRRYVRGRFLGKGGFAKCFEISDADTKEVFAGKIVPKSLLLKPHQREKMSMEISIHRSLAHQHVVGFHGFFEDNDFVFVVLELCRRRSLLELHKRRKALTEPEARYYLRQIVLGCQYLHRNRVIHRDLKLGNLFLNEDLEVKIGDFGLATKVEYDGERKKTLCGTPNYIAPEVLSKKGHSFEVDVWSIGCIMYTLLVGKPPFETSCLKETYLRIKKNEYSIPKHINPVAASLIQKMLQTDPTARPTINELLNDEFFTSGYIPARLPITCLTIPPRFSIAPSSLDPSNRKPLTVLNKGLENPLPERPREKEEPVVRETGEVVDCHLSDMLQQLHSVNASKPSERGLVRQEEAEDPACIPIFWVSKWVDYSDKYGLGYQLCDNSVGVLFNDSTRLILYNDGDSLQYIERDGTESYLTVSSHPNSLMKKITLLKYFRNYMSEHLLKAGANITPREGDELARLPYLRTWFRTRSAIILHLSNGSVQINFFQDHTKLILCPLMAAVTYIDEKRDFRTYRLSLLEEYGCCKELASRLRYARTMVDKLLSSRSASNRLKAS
# Procedure: as §1
# [14] = biological target: CDK18 (Homo sapiens, UniProt Q07002)
# Chain of CDK18 (Q07002 whole entry): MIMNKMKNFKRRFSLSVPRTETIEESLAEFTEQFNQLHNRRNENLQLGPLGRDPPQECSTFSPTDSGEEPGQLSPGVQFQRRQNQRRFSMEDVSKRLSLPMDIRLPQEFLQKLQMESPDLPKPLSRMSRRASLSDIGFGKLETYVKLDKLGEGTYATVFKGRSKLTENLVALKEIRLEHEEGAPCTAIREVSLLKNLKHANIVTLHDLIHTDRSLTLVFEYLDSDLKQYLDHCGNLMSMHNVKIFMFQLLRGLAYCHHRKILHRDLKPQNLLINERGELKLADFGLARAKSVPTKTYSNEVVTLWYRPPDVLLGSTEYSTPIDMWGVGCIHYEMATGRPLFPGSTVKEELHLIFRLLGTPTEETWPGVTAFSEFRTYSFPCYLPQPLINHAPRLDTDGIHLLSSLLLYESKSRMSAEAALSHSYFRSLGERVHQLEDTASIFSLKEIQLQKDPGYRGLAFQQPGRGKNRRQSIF
# Procedure: as §1
# [15] = biological target: EPHA5 (Homo sapiens, UniProt P54756)
# Procedure: as §1
# [16] = biological target: PAK4 (Homo sapiens, UniProt O96013)
# Procedure: as §1
# [17] = biological target: MARK2 (Homo sapiens, UniProt Q7KZI7)
# Procedure: as §1
# [18] = biological target: FES (Homo sapiens, UniProt P07332)
# Procedure: as §1
# [19] = biological target: KSR2 (Homo sapiens, UniProt Q6VAB6)
# Procedure: as §1
# [20] = biological target: EPHA2 (Homo sapiens, UniProt P29317)
# Procedure: as §1
# [21] = biological target: NTRK2/TRKB (Homo sapiens, UniProt Q16620)
# Procedure: as §1
# [22] = biological target: T2, ICK (Homo sapiens, UniProt Q9UPZ9)
# T2 construct: gene CILK1
# T2 sequence (Q9UPZ9 whole entry): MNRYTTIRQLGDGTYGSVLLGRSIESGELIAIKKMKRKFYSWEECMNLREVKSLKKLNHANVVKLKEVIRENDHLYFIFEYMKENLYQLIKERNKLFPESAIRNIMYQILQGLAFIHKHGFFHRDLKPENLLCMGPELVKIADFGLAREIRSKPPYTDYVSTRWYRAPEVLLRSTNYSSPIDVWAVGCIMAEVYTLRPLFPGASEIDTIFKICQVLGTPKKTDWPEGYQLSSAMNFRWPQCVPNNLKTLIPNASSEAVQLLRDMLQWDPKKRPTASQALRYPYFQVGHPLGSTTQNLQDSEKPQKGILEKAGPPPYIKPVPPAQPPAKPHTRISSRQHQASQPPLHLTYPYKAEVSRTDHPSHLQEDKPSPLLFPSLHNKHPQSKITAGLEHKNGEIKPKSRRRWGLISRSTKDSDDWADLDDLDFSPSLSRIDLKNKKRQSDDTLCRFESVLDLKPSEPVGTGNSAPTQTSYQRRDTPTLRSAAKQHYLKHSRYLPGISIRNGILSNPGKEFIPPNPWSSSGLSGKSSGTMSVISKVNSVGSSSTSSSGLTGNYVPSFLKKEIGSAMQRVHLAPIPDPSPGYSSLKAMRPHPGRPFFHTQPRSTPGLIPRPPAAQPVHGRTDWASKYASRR
# Procedure: as §1
# [23] = biological target: PTK6/BRK (Homo sapiens, UniProt Q13882)
# Chain of PTK6/BRK (Q13882 whole entry): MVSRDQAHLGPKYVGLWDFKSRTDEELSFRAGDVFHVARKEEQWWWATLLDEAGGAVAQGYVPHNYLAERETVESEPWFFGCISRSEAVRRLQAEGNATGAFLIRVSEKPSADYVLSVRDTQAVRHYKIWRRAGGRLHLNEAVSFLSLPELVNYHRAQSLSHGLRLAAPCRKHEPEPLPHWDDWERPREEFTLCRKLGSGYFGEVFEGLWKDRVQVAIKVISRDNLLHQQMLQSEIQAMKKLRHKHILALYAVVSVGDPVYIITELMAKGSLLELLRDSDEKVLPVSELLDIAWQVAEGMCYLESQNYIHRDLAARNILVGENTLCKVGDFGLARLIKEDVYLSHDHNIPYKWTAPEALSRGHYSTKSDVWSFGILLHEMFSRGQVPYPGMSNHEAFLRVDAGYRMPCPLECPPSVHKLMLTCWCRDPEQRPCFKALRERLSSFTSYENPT
# Procedure: as §1
# [24] = biological target: BRSK2 (Homo sapiens, UniProt Q8IWQ3)
# Procedure: as §1
# [25] = biological target: T3, PDHK2 (Homo sapiens, UniProt Q15119)
# T3 construct: gene PDK2
# Procedure: as §1
# [26] = biological target: EPHA6 (Homo sapiens, UniProt Q9UF33)
# Procedure: as §1
# [27] = biological target: CDK5/P25 (Homo sapiens, UniProt Q00535)
# Procedure: as §1
# [28] = biological target: ITK (Homo sapiens, UniProt Q08881)
# Procedure: as §1
# [29] = biological target: GAK (Homo sapiens, UniProt O14976)
# Procedure: as §1
# [30] = biological target: ULK2 (Homo sapiens, UniProt Q8IYT8)
# Chain of ULK2 (Q8IYT8 whole entry): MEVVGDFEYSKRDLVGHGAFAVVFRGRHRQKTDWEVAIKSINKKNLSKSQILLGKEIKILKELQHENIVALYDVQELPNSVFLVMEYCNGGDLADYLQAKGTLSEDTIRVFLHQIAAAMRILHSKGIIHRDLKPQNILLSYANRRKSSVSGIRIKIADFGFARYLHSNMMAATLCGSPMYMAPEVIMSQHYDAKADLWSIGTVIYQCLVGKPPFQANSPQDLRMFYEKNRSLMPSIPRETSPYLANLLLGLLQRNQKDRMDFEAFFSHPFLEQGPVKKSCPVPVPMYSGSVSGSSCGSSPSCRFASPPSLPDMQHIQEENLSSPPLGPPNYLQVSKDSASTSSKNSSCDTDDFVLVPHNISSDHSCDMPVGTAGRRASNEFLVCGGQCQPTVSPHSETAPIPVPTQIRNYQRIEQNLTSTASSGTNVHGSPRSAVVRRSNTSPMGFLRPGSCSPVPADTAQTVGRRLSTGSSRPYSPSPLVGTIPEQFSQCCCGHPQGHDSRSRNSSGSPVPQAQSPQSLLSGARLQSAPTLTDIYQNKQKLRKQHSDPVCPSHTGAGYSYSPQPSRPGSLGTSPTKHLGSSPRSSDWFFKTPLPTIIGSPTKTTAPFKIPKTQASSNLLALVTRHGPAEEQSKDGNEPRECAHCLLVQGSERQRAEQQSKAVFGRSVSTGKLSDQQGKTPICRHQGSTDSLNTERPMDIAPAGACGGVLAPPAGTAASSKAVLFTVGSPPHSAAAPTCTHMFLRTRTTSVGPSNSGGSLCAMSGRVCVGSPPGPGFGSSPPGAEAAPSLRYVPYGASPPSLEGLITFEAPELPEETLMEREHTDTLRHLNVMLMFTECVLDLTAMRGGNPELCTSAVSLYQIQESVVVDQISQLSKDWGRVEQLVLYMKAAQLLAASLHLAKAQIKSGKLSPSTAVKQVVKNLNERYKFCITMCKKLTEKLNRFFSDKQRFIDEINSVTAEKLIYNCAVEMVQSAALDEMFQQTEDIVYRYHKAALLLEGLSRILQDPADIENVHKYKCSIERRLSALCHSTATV
# Procedure: as §1
# [31] = biological target: CSK (Homo sapiens, UniProt P41240)
# Chain of CSK (P41240 whole entry): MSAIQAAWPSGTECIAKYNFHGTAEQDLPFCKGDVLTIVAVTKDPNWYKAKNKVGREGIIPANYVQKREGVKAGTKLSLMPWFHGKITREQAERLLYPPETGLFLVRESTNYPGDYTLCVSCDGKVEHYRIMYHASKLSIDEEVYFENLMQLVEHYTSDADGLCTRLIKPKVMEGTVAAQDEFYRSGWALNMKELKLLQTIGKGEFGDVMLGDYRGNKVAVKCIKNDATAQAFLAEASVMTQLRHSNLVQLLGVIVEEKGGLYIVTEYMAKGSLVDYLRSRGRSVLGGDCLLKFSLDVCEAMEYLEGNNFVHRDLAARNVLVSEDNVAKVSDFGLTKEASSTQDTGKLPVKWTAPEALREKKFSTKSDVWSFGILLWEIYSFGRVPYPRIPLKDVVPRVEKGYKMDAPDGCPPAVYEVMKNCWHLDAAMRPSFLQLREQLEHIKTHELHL
# Procedure: as §1
# [32] = biological target: MARK3 (Homo sapiens, UniProt P27448)
# Procedure: as §1
# [33] = biological target: MAPK12/P38G (Homo sapiens, UniProt P53778)
# Chain of MAPK12/P38G (P53778 whole entry): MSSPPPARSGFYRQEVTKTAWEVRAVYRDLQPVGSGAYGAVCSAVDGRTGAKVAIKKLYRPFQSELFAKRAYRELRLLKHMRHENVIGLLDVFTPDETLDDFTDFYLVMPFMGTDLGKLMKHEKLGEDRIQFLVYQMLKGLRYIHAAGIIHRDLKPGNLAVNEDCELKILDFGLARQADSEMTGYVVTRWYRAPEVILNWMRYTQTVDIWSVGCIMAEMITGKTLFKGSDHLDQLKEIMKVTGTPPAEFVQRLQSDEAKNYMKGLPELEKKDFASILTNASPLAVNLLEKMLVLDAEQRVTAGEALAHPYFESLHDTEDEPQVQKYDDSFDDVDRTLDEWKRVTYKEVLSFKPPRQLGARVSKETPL
# Procedure: as §1
# [34] = biological target: GSK3A (Homo sapiens, UniProt P49840)
# Procedure: as §1
# [35] = biological target: CDK9/T1 (Homo sapiens, UniProt P50750)
# Procedure: as §1
# [36] = biological target: SGK3 (Homo sapiens, UniProt Q96BR1)
# Procedure: as §1
# [37] = biological target: GRK7 (Homo sapiens, UniProt Q8WTQ7)
# Procedure: as §1
# [38] = biological target: MELK (Homo sapiens, UniProt Q14680)
# Procedure: as §1
# [39] = biological target: FAM20C (Homo sapiens, UniProt Q8IXL6)
# Chain of FAM20C (Q8IXL6 whole entry): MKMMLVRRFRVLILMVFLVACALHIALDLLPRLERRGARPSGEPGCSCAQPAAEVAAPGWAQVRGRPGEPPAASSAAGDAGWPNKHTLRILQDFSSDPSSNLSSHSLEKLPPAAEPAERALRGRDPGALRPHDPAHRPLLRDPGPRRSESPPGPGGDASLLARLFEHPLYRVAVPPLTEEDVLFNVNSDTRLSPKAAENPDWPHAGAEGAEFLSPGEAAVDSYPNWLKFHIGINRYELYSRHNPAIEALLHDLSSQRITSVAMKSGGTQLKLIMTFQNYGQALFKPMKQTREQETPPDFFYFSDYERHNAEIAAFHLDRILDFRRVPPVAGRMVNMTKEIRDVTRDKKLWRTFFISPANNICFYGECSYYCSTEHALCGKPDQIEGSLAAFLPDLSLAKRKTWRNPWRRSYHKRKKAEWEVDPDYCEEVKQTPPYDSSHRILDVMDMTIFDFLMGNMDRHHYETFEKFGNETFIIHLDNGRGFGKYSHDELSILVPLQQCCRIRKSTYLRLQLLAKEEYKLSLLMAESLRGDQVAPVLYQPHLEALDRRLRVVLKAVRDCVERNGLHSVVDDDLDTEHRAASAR
# Procedure: as §1
compound,measurement,setting,value
C=CC(=O)N1CCC[C@@H](n2nc(-c3ccc(Oc4ccccc4)cc3)c3c(N)ncnc32)C1 [Ibrutinib],"1 µM GBD00276 (ibrutinib), % inhibition",[1],0.2657%
same,"1 µM GBD00276 (ibrutinib), % inhibition",[2],6.19%
same,"1 µM GBD00276 (ibrutinib), % inhibition",[3],11.14%
same,"1 µM GBD00276 (ibrutinib), % inhibition",[4],19.79%
same,"1 µM GBD00276 (ibrutinib), % inhibition",[5],9.261%
same,"1 µM GBD00276 (ibrutinib), % inhibition",[6],20.73%
same,"1 µM GBD00276 (ibrutinib), % inhibition",[7],-3.598%
same,"1 µM GBD00276 (ibrutinib), % inhibition",[8],7.389%
same,"1 µM GBD00276 (ibrutinib), % inhibition",[9],45.62%
same,"1 µM GBD00276 (ibrutinib), % inhibition",[10],3.894%
same,"1 µM GBD00276 (ibrutinib), % inhibition",[11],9.099%
same,"1 µM GBD00276 (ibrutinib), % inhibition",[12],1.01%
same,"1 µM GBD00276 (ibrutinib), % inhibition",[13],6.704%
same,"1 µM GBD00276 (ibrutinib), % inhibition",[14],6.584%
same,"1 µM GBD00276 (ibrutinib), % inhibition",[15],-3.884%
same,"1 µM GBD00276 (ibrutinib), % inhibition",[16],3.525%
same,"1 µM GBD00276 (ibrutinib), % inhibition",[17],4.287%
same,"1 µM GBD00276 (ibrutinib), % inhibition",[18],7.857%
same,"1 µM GBD00276 (ibrutinib), % inhibition",[19],3.265%
same,"1 µM GBD00276 (ibrutinib), % inhibition",[20],9.007%
same,"1 µM GBD00276 (ibrutinib), % inhibition",[21],21.53%
same,"1 µM GBD00276 (ibrutinib), % inhibition",[22],-2.761%
same,"1 µM GBD00276 (ibrutinib), % inhibition",[23],98.64%
same,"1 µM GBD00276 (ibrutinib), % inhibition",[24],-9.3%
same,"1 µM GBD00276 (ibrutinib), % inhibition",[25],7.038%
same,"1 µM GBD00276 (ibrutinib), % inhibition",[26],17.71%
same,"1 µM GBD00276 (ibrutinib), % inhibition",[27],18.4%
same,"1 µM GBD00276 (ibrutinib), % inhibition",[28],38.79%
same,"1 µM GBD00276 (ibrutinib), % inhibition",[29],-7.706%
same,"1 µM GBD00276 (ibrutinib), % inhibition",[30],-2.604%
same,"1 µM GBD00276 (ibrutinib), % inhibition",[31],61.63%
same,"1 µM GBD00276 (ibrutinib), % inhibition",[32],4.514%
same,"1 µM GBD00276 (ibrutinib), % inhibition",[33],1.971%
same,"1 µM GBD00276 (ibrutinib), % inhibition",[34],12.02%
same,"1 µM GBD00276 (ibrutinib), % inhibition",[35],-10.19%
same,"1 µM GBD00276 (ibrutinib), % inhibition",[36],7.387%
same,"1 µM GBD00276 (ibrutinib), % inhibition",[37],3.056%
same,"1 µM GBD00276 (ibrutinib), % inhibition",[38],-0.3303%
same,"1 µM GBD00276 (ibrutinib), % inhibition",[39],3.541%
